Test results: patent US20250188078A1, “SMALL MOLECULE INHIBITORS OF THE CRL4 UBIQUITIN LIGASE” (Cornell University, priority 2022, published 2025)

Columns and labels:
[1] = target: CUL4A-DDB1-BPB interaction (Homo sapiens (Human), UniProt Q16531); assay: AlphaLISA in vitro binding assay, CUL4A and DDB1-BPB binding; details: inhibition of CUL4A and DDB1-BPB binding
In short: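 Compound disruption of CUL4A binding to DDB1-BPB measured by AlphaLISA/AlphaScreen bead proximity in 384-well format. IC50 from nonlinear log(inhibitor)-vs-response curve fit.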

[2] = test system: CUL4A^low T47D breast cancer cells; assay: Cell killing in CUL4-low T47D cells (CellTiter Glo); assay type: cell-based; details: Homo sapiens, 192 h; T47D cells, 8 days treatment; read-out: EC50 CUL4-Low Cells (cell killing)
Method: EC50 indicates compound concentration can cause 50% cell killing in CUL4° ^w T47D cells (see Table 1, column 7). CUL4A^low T47D breast cancer cells were seeded in 96 well plate. […] Change fresh medium and compounds every 48 hours. After 8 days treatment, cell viability was examined by using CellTiter Glo kit (Promega #7570) following the manufacturer's guidelines (https://www.promega.com/-/media/files/resources/protocols/technical-bulletins/0/celltiter-glo-luminescent-cell-viability-assay-protocol.pdf?rev=0d95c232094b41daa06d0c110d1d916f&sc_lang=en, hereby incorporated by reference in its entirety for all purposes). EC50 concentration was calculated by Prism 8 XY analysis nonlinear regression (curve fit-Log(inhibitor) vs response). EC50 indicates cell killing potential in CUL4 low T47D cell line and the EC50 difference between CUL4^high and CUL4^low cells indicates the small molecule cause specific cell killing.
CUL4A^high MDA-MB-468, CUL4^low (T47D), and MCF7 breast cancer cells were seeded in 96 well plates separately. […] Replace with fresh medium and compounds every 48 hours. After 8 days treatment, cell viability was examined by CellTiter Glo kit (Promega #7570). First, transfer the appropriate volume (10 ml for Cat. #G7570) of CellTiter-Glo® Buffer into the amber bottle containing CellTiter-Glo® Substrate to reconstitute the lyophilized enzyme/substrate mixture. This forms the CellTiter-Glo® Reagent. Second, add CellTiter-Glo® Reagent in an equal volume (100 μl per well for 96-well plates) to all wells. Mix contents for 2 minutes on an orbital shaker to induce cell lysis. Incubate at room temperature for 15 minutes to stabilize luminescent signal. Then record luminescence. EC50 concentration was calculated by Prism 8 XY analysis nonlinear regression (curve fit-Log(inhibitor) vs response).

[3] = test system: UV-induced CUL4-dependent DDB2 degradation in MEF-F-DDB2 cells; assay: Cell-based assay for inhibition of UV-induced CUL4-dependent DDB2 degradation; set-up: key: (+) means that the normalized DDB2/α-tubulin ratio is higher in the compound treated sample than DMSO treated sample; (−) means that no change happens between compound treated sample with control sample; details: DDB2/α-tubulin by Western blot
Method: Cell-based assay for inhibition of UV-induced CUL4-dependent DDB2 degradation by small molecule CUL4 inhibitors (see Table 1, column 5). Briefly, MEF-F-DDB2 cells were seeded in 6-well plates. DMSO or indicated concentrations of compounds were added to MEF-F-DDB2 cells growing in serum-free medium. MEF-F-DDB2 cells were washed once with PBS and subsequently irradiated with a Philips TUV lamp (predominantly 254 nm) at a dose rate of 0.2 W/m^2. DMSO or compounds were added to MEF-F-DDB2 cells, and then cells were harvested. The cells were lysed, and equal amounts of proteins were resolved on SDS-PAGE gel and Flag-DDB2 levels were detected using anti-DDB2 (D4C4) rabbit antibody (Cell signaling, #5416S). α-tubulin (Proteintech, #66031-1-Ig) was used as an internal loading control. (+) means that the normalized DDB2/α-tubulin ratio is higher in the compound treated sample than DMSO treated sample. (−) means that no change happens between compound treated sample with control sample.

[4] = Dynamic light scattering (DLS) solubility assay; assay type: physicochemical; details: normalized intensity ratio of 25 μM compound vs DMSO, in PBS
Method: Dynamic light scattering (DLS) (see Table 1, column 3) is a tool for studying the diffusion behavior of macromolecules in solution. To profile compound solubility, DLS assay was developed for measuring aggregation of small molecule compounds. Compound stock solution was prepared in DMSO. Dilution series were made for each compound in DMSO to ensure a final 1× assay concentration range of 200 μM to 0.78 μM. For example, if the final DMSO concentration was 1%, compounds were prepared at 100× concentrations ranging from […] to 78 μM. Dilute compounds in PBS solution to final concentration. Place 60 μl/well in 96 well plates and 3 replicates for each sample. Data were collected using a DynaPro Plate Reader III (WYATT Technologies, Inc., USA). The instrument was adjusted to measure the optimal light scattering intensity according to the manufacturer's instructions. […] The ratio over 2 means (−) insoluble. The ratio below 2 means (+) soluble and around 2 means (+/−).

[5] = test system: CUL4A^high MDA-MB-468 breast cancer cells; assay: Cell killing in CUL4-high MDA-MB-468 cells (CellTiter Glo); assay type: cell-based; details: Homo sapiens, 192 h; MDA-MB-468 cells, 8 days treatment; read-out: EC50 CUL4-High Cells (cell killing)
Method: EC50 refers to concentration of compound that induces 50% killing of CUL4A^high MDA-MB-468 cells (see Table 1, column 6). CUL4A^high MDA-MB-468 breast cancer cells were seeded in 96 well plates. After 24 hours, cells were treated with DMSO or compounds. Change fresh medium and compounds. After 8 days treatment, cell viability was examined by using CellTiter Glo kit (Promega #7570) following the manufacturer's guidelines (https://www.promega.com/-/media/files/resources/protocols/technicalbulletins/0/celltiter-glo-luminescent-cell-viability-assay protocol.pdf?rev=0d95c232094b41daa06d0c110d1d916f&sc_lang=en, hereby incorporated by reference in its entirety for all purposes). EC50 concentration was calculated by Prism 8 XY analysis nonlinear regression (curve fit-Log(inhibitor) vs response). Lower EC50 indicates high cell killing potential in CUL4^high MDA-MB-468 cells.
CUL4A^high MDA-MB-468, CUL4^low (T47D), and MCF7 breast cancer cells were seeded in 96 well plates separately. Cells were treated with DMSO, or from 0 to 20 μM compound respectively. Replace with fresh medium and compounds every 48 hours. After 8 days treatment, cell viability was examined by CellTiter Glo kit (Promega #7570). First, transfer the appropriate volume (10 ml for Cat. #G7570) of CellTiter-Glo® Buffer into the amber bottle containing CellTiter-Glo® Substrate to reconstitute the lyophilized enzyme/substrate mixture. This forms the CellTiter-Glo® Reagent. Second, add CellTiter-Glo® Reagent in an equal volume (100 μl per well for 96-well plates) to all wells. Mix contents for 2 minutes on an orbital shaker to induce cell lysis. Incubate at room temperature for 15 minutes to stabilize luminescent signal. Then record luminescence. EC50 concentration was calculated by Prism 8 XY analysis nonlinear regression (curve fit-Log(inhibitor) vs response).

CUL4A-DDB1-BPB interaction, sequence (Q16531 403-706): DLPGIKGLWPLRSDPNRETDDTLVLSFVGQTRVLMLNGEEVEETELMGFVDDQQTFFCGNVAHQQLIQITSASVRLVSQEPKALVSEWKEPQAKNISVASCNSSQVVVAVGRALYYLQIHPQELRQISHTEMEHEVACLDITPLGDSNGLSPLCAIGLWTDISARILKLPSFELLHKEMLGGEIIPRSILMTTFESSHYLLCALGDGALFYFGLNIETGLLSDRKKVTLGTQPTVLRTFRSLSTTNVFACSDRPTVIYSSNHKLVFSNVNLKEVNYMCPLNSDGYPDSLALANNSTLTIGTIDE

| Compound | IC50 [1] [µM] | EC50 [2] [µM] | Degradation Inhibition (inhibition of UV-induced DDB2 degradation) [3] | Solubility (DLS Assay) [4] | EC50 [5] [µM] | AlphaLisa IC50 [1] |
| --- | --- | --- | --- | --- | --- | --- |
| CN(c1ccc(-c2nc(C(=O)O)cc3c2[nH]c2ccc(F)c(F)c23)cc1)S(=O)(=O)c1ccccc1 [PA1-1, 1-[4-[benzenesulfonyl(methyl)amino]phenyl]-5,6-difluoro-9H-pyrido[3,4-b]indole-3-carboxylic acid] | 0.17 | > 100 | − | -(insoluble) | 15.2 |  |
| CN(c1ccc(-c2nc(C(=O)O)cc3c2[nH]c2c(F)cccc23)cc1)S(=O)(=O)c1ccccc1 [PA1-4, 8-fluoro-1-(4-(N-methylphenylsulfonamido)phenyl)-9H-pyrido[3,4-b]indole-3-carboxylic acid] | 8.88 | 10.9 | − |  | 6.9 |  |
| Cc1ccc(S(=O)(=O)N(C)c2ccc(-c3nc(C(=O)O)cc4c3[nH]c3ccc(F)cc34)cc2)cc1 [PA2-1, 6-fluoro-1-[4-[methyl-(p-tolylsulfonyl)amino]phenyl]-9H-pyrido[3,4-b]indole-3-carboxylic acid] | 0.3 | > 100 | − | -(insoluble) | 9.32 |  |
| COc1ccc(S(=O)(=O)N(C)c2ccc(-c3nc(C(=O)O)cc4c3[nH]c3ccc(F)cc34)cc2)cc1 [PA2-2, 6-fluoro-1-[4-[(4-methoxyphenyl)-sulfonyl-methyl-amino]phenyl]-9H-pyrido[3,4-b]indole-3-carboxylic acid] | 0.89 | > 100 | − | -(insoluble) | 8.45 |  |
| CN(c1ccc(-c2nc(C(=O)O)cc3c2[nH]c2ccc(F)cc23)cc1)S(=O)(=O)c1ccc(F)cc1 [PA2-3, 6-fluoro-1-[4-[(4-fluorophenyl)sulfonyl-methyl-amino]phenyl]-9H-pyrido[3,4-b]indole-3-carboxylic acid] | 0.48 | > 100 | − | -(insoluble) | 13.3 |  |
| CN(c1ccc(-c2nc(C(=O)O)cc3c2[nH]c2ccc(F)cc23)cc1)S(=O)(=O)c1ccc(Br)cc1 [PA2-4, 1-[4-[(4-bromophenyl)sulfonyl-methyl-amino]phenyl]-6-fluoro-9H-pyrido[3,4-b]indole-3-carboxylic acid] | 0.75 | > 100 | + |  | 4.49 |  |
| COC(=O)c1ccc(-c2nc(C(=O)O)cc3c2[nH]c2ccccc23)cc1 [PA20, 1-(4-methoxycarbonylphenyl)-9H-pyrido[3,4-b]indole-3-carboxylic acid] | 2.09 ± 1.26 | > 100 | + |  | 91.3 |  |
| O=[N+]([O-])c1ccc(-c2nc(-c3nn[nH]n3)cc3c2[nH]c2ccccc23)cc1 [PA40, 1-(4-nitrophenyl)-3-(1H-tetrazol-5-yl)-9H-pyrido[3,4-b]indole] | 12.9 ± 7.44 | 54.7 |  | -(insoluble) | 23.5 |  |
| CS(=O)(=O)Nc1ccc(-c2nc(C(=O)O)cc3c2[nH]c2ccccc23)cc1 [PA48, 1-[4-(methanesulfonamido)phenyl]-9H-pyrido[3,4-b]indole-3-carboxylic acid] | 1.26 ± 0.45 | > 100 | + |  | 84.1 |  |
| CS(=O)(=O)Oc1ccc(-c2nc(C(=O)O)cc3c2[nH]c2ccccc23)cc1 [PA53, 1-(4-methylsulfonyloxyphenyl)-9H-pyrido[3,4-b]indole-3-carboxylic acid] | 1.31 ± 0.24 | 69.5 |  |  | 27.5 |  |
| COC(=O)c1cc2c([nH]c3ccccc32)c(-c2ccc(S(C)(=O)=O)cc2)n1 [PA54] |  | > 100 | + | -(insoluble) | > 100 | Neg |
| CS(=O)(=O)NC(=O)c1cc2c([nH]c3ccccc32)c(-c2ccc(S(C)(=O)=O)cc2)n1 [PA55] | 11.1 ± 2.71 | 53.8 | − |  | 30.7 |  |
| COC(=O)c1cc2c([nH]c3ccccc32)c(-c2ccc(S(=O)(=O)Cc3ccccc3)cc2)n1 [PA65, methyl 1-(4-benzylsulfonylphenyl)-9H-pyrido[3,4-b]indole-3-carboxylate] |  | 44.3 |  | -(insoluble) | 18.1 | Neg |
| O=C(O)c1cc2c([nH]c3ccccc32)c(-c2ccc(S(=O)(=O)Cc3ccccc3)cc2)n1 [PA67, 1-(4-benzylsulfonylphenyl)-9H-pyrido[3,4-b]indole-3-carboxylic acid] | 1.22 ± 0.35 | > 100 |  |  | 53.8 |  |
| CN(c1ccc(-c2nc(C(=O)O)cc3c2[nH]c2ccccc23)cc1)S(C)(=O)=O [PA75, 1-[4-[methyl(methylsulfonyl)amino]phenyl]-9H-pyrido[3,4-b]indole-3-carboxylic acid] | 1.39 ± 0.43 | 64 |  |  | 38.7 |  |
| COC(=O)c1cc2c([nH]c3ccc(F)cc32)c(-c2ccc(N(C)S(=O)(=O)c3ccccc3)cc2)n1 [PA93-1] |  | > 100 | − | -(insoluble) | 21.8 | Neg |
